# Reference: paper PMC7385619, “A triple action CDK4/6-PI3K-BET inhibitor with augmented cancer cell cytotoxicity” (Cell Discovery, 2020)
# Read-outs that look alike come from different tables or passages of the source.
# Columns and labels:
# Test in all cases: KINOMEscan assay (Eurofins DiscoverX)
# Type in all cases: binding
# kinome (kinase panel) [1] = target: T1, kinome (kinase panel) (Homo sapiens, UniProt O00238); settings: BMPR1B; 1000 nM; read-out: Percent Control
# T1 construct: purchased Eurofins DiscoverX
# kinome (kinase panel) [2] = target: T2, kinome (kinase panel) (Homo sapiens, UniProt O43318); settings: TAK1 (MAP3K7); 1000 nM; read-out: Percent Control
# T2 construct: purchased Eurofins DiscoverX
# kinome (kinase panel) [3] = target: T3, kinome (kinase panel) (Homo sapiens, UniProt O75116); settings: ROCK2; 1000 nM; read-out: Percent Control
# T3 construct: purchased Eurofins DiscoverX
# kinome (kinase panel) [4] = target: T4, kinome (kinase panel) (Homo sapiens, UniProt O75582); settings: 1000 nM, read-out: Percent Control
# T4 construct: purchased Eurofins DiscoverX
# T4 sequence (O75582 whole entry): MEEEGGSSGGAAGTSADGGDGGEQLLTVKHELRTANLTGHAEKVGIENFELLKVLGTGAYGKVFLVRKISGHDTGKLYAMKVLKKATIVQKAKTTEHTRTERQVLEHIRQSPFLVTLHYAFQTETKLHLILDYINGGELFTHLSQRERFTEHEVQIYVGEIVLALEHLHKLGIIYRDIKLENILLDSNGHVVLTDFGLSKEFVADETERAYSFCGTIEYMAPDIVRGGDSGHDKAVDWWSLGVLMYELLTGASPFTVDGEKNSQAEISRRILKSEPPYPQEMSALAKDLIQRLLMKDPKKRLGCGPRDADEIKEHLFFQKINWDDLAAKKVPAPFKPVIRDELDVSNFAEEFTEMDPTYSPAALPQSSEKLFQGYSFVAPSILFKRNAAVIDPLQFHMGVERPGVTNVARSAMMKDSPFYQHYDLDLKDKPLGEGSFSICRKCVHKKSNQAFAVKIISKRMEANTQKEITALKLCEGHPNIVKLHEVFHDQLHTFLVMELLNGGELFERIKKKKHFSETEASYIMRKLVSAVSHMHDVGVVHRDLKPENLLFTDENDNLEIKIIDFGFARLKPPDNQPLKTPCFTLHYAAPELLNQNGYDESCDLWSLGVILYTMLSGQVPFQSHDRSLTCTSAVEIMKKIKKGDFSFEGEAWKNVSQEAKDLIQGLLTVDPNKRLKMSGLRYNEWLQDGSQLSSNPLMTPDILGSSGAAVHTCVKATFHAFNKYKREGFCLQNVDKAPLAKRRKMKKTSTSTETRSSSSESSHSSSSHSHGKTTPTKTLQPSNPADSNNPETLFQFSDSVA
# kinome (kinase panel) [5] = target: T5, kinome (kinase panel) (Homo sapiens, UniProt O95747); settings: OSR1 (Entrez OXSR1); 1000 nM; read-out: Percent Control
# T5 construct: purchased Eurofins DiscoverX
# kinome (kinase panel) [6] = target: T6, kinome (kinase panel) (Homo sapiens, UniProt P07949); settings: RET; 1000 nM; read-out: Percent Control
# T6 construct: purchased Eurofins DiscoverX
# kinome (kinase panel) [7] = target: T7, kinome (kinase panel) (Homo sapiens, UniProt P15056, V600E); settings: […]; 1000 nM; read-out: Percent Control
# T7 construct: purchased Eurofins DiscoverX
# T7 sequence (P15056 whole entry V600E): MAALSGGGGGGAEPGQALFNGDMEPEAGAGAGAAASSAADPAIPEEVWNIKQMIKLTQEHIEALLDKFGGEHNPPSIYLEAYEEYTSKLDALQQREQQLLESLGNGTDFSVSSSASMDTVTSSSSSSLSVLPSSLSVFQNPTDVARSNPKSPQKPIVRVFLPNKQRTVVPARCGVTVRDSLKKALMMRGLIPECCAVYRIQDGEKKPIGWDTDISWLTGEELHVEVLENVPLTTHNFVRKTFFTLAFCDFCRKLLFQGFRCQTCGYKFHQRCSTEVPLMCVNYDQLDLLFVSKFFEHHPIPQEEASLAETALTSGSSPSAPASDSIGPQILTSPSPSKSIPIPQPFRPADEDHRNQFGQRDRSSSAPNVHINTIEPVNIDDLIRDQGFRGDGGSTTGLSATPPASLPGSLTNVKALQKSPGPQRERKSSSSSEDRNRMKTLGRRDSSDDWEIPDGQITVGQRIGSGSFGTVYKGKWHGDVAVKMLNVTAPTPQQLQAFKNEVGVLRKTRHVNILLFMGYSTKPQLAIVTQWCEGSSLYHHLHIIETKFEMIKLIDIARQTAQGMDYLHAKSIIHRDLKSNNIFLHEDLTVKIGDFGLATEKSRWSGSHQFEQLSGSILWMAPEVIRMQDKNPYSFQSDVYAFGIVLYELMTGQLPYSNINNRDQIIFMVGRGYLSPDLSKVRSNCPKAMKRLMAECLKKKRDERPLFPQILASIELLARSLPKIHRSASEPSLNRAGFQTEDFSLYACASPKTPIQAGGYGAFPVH
# kinome (kinase panel) [8] = target: T8, kinome (kinase panel) (Homo sapiens, UniProt P24723); settings: PRKCH; 1000 nM; read-out: Percent Control
# T8 construct: purchased Eurofins DiscoverX
# kinome (kinase panel) [9] = target: T9, kinome (kinase panel) (Homo sapiens, UniProt P30291); settings: WEE1; 1000 nM; read-out: Percent Control
# T9 construct: purchased Eurofins DiscoverX
# kinome (kinase panel) [10] = target: T10, kinome (kinase panel) (Homo sapiens, UniProt P33981); settings: TTK; 1000 nM; read-out: Percent Control
# T10 construct: purchased Eurofins DiscoverX
# kinome (kinase panel) [11] = target: T11, kinome (kinase panel) (Homo sapiens, UniProt P37173); settings: TGFBR2; 1000 nM; read-out: Percent Control
# T11 construct: purchased Eurofins DiscoverX
# T11 sequence (P37173 23-567): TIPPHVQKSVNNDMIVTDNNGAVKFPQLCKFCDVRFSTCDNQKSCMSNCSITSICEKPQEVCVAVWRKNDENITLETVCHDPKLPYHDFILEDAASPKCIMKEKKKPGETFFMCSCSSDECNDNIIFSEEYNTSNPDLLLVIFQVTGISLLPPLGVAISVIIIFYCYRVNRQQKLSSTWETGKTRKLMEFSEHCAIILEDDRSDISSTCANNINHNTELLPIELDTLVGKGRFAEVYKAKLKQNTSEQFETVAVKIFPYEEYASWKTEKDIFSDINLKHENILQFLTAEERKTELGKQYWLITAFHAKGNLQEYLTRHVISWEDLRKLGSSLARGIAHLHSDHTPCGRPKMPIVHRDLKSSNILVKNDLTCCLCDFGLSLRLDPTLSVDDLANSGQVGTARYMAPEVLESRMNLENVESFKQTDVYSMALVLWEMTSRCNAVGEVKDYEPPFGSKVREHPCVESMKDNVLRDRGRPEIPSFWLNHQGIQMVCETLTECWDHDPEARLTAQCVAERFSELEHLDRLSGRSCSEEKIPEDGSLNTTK
# kinome (kinase panel) [12] = target: T12, kinome (kinase panel) (Homo sapiens, UniProt P49759); settings: CLK1; 1000 nM; read-out: Percent Control
# T12 construct: purchased Eurofins DiscoverX
# kinome (kinase panel) [13] = target: T13, kinome (kinase panel) (Homo sapiens, UniProt P78362); settings: SRPK2; 1000 nM; read-out: Percent Control
# T13 construct: purchased Eurofins DiscoverX
# T13 sequence (P78362 whole entry): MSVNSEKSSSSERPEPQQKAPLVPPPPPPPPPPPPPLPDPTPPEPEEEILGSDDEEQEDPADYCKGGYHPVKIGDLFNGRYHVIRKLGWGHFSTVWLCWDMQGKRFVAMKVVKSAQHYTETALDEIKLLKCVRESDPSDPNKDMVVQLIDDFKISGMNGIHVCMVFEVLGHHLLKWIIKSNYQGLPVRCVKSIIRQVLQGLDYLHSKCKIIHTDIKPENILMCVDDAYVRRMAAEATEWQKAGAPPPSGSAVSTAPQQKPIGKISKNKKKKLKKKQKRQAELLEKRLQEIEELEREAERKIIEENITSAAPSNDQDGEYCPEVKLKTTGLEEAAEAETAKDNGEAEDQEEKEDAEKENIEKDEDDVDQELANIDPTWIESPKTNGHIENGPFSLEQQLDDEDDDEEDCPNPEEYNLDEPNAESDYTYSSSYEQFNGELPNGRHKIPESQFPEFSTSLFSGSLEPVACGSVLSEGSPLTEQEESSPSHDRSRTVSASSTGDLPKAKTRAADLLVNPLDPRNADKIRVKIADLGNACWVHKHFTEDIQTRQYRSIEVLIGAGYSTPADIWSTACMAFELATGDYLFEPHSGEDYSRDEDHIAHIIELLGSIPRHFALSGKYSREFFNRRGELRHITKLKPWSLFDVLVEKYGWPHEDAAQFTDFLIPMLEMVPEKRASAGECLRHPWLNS
# kinome (kinase panel) [14] = target: T14, kinome (kinase panel) (Homo sapiens, UniProt Q05397); settings: FAK (Entrez PTK2); 1000 nM; read-out: Percent Control
# T14 construct: purchased Eurofins DiscoverX
# kinome (kinase panel) [15] = target: T15, kinome (kinase panel) (Homo sapiens, UniProt Q12851); settings: MAP4K2; 1000 nM; read-out: Percent Control
# T15 construct: purchased Eurofins DiscoverX
# kinome (kinase panel) [16] = target: T16, kinome (kinase panel) (Homo sapiens, UniProt Q13131); settings: AMPK-alpha1 (Entrez PRKAA1); 1000 nM; read-out: Percent Control
# T16 construct: purchased Eurofins DiscoverX
# kinome (kinase panel) [17] = target: T17, kinome (kinase panel) (Homo sapiens, UniProt Q14164); settings: IKK-epsilon (Entrez IKBKE); 1000 nM; read-out: Percent Control
# T17 construct: purchased Eurofins DiscoverX
# kinome (kinase panel) [18] = target: T18, kinome (kinase panel) (Homo sapiens, UniProt Q15303); settings: ERBB4; 1000 nM; read-out: Percent Control
# T18 construct: purchased Eurofins DiscoverX
# kinome (kinase panel) [19] = target: T19, kinome (kinase panel) (Homo sapiens, UniProt Q16566); settings: CAMK4; 1000 nM; read-out: Percent Control
# T19 construct: purchased Eurofins DiscoverX
# kinome (kinase panel) [20] = target: T20, kinome (kinase panel) (Homo sapiens, UniProt Q16620); settings: TRKB (NTRK2); 1000 nM; read-out: Percent Control
# T20 construct: purchased Eurofins DiscoverX
# kinome (kinase panel) [21] = target: T21, kinome (kinase panel) (Homo sapiens, UniProt Q16659); settings: ERK3 (Entrez MAPK6); 1000 nM; read-out: Percent Control
# T21 construct: purchased Eurofins DiscoverX
# T21 sequence (Q16659 whole entry): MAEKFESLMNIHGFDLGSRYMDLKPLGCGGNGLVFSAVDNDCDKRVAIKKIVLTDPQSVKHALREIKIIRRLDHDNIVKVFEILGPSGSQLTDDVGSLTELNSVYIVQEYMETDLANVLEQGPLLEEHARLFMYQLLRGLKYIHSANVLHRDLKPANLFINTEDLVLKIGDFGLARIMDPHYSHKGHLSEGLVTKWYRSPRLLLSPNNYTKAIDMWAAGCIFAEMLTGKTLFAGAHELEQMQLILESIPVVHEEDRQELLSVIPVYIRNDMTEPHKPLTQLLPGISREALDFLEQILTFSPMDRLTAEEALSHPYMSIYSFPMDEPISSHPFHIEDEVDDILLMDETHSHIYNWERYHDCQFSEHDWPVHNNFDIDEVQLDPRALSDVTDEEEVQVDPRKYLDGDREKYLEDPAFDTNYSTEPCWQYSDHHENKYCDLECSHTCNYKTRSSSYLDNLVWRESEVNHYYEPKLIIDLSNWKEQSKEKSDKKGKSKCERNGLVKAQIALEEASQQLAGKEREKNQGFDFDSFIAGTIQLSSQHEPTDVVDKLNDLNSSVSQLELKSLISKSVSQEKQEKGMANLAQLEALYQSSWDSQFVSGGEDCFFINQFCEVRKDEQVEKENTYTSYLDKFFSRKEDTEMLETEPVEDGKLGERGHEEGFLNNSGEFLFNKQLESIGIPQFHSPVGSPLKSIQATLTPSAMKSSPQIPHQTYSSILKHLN
# kinome (kinase panel) [22] = target: T22, kinome (kinase panel) (Homo sapiens, UniProt Q8NEV4); settings: MYO3A; 1000 nM; read-out: Percent Control
# T22 construct: purchased Eurofins DiscoverX
# kinome (kinase panel) [23] = target: T23, kinome (kinase panel) (Homo sapiens, UniProt Q8NG66); settings: NEK11; 1000 nM; read-out: Percent Control
# T23 construct: purchased Eurofins DiscoverX
# kinome (kinase panel) [24] = target: T24, kinome (kinase panel) (Homo sapiens, UniProt Q8WXR4); settings: MYO3B; 1000 nM; read-out: Percent Control
# T24 construct: purchased Eurofins DiscoverX
# T24 sequence (Q8WXR4 whole entry): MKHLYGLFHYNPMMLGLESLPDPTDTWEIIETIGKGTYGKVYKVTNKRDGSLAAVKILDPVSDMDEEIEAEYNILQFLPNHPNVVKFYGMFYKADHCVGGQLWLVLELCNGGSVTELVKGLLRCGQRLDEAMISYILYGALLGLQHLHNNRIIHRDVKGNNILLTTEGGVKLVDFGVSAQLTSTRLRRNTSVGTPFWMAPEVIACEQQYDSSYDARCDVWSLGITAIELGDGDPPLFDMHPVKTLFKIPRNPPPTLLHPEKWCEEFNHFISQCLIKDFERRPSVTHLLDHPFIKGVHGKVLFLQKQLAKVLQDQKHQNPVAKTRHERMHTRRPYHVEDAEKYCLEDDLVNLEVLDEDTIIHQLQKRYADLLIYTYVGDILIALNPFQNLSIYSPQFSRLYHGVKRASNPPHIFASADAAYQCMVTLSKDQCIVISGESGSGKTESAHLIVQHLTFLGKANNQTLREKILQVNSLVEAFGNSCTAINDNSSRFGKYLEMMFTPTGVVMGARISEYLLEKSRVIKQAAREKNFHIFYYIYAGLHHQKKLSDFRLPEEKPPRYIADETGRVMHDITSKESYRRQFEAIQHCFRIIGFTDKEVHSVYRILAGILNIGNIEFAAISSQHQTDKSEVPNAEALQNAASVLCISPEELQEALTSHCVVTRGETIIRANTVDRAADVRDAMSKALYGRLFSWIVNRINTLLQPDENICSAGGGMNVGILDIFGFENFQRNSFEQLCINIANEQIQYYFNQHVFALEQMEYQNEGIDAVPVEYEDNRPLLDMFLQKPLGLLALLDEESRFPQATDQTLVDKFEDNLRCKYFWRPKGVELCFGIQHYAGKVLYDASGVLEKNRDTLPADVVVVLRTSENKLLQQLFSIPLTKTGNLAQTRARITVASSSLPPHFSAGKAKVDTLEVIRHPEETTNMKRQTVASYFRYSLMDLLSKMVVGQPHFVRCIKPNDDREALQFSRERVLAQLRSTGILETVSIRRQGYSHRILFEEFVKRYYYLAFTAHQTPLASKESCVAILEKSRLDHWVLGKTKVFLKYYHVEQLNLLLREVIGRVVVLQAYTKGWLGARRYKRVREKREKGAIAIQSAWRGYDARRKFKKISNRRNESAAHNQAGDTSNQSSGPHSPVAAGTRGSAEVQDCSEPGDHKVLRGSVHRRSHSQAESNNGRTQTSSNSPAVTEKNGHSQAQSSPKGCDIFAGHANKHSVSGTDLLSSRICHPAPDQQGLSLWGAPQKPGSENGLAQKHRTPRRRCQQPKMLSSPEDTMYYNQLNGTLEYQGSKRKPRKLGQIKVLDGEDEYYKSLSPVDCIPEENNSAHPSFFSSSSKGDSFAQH
# kinome (kinase panel) [25] = target: T25, kinome (kinase panel) (Homo sapiens, UniProt Q96D53); settings: ADCK4; 1000 nM; read-out: Percent Control
# T25 construct: purchased Eurofins DiscoverX
# kinome (kinase panel) [26] = target: T26, kinome (kinase panel) (Homo sapiens, UniProt Q96J92); settings: WNK4; 1000 nM; read-out: Percent Control
# T26 construct: purchased Eurofins DiscoverX
# kinome (kinase panel) [27] = target: T27, kinome (kinase panel) (Homo sapiens, UniProt Q99683); settings: ASK1 (Entrez MAP3K5); 1000 nM; read-out: Percent Control
# T27 construct: purchased Eurofins DiscoverX
# kinome (kinase panel) [28] = target: T28, kinome (kinase panel) (Homo sapiens, UniProt Q9HBY8); settings: SGK2; 1000 nM; read-out: Percent Control
# T28 construct: purchased Eurofins DiscoverX
# kinome (kinase panel) [29] = target: T29, kinome (kinase panel) (Homo sapiens, UniProt Q9NYL2); settings: ZAK; 1000 nM; read-out: Percent Control
# T29 construct: purchased Eurofins DiscoverX
# kinome (kinase panel) [30] = target: T30, kinome (kinase panel) (Homo sapiens, UniProt Q9UHD2); settings: TBK1; 1000 nM; read-out: Percent Control
# T30 construct: purchased Eurofins DiscoverX
# kinome (kinase panel) [31] = target: T31, kinome (kinase panel) (Homo sapiens, UniProt Q9UIK4); settings: DAPK2; 1000 nM; read-out: Percent Control
# T31 construct: purchased Eurofins DiscoverX
# kinome (kinase panel) [32] = target: T32, kinome (kinase panel) (Homo sapiens, UniProt Q9Y5S2); settings: MRCKB (Entrez CDC42BPB); 1000 nM; read-out: Percent Control
# T32 construct: purchased Eurofins DiscoverX
structure (smiles),measurement,setting,value
CN(C)C(=O)c1cc2cnc(Nc3ccc(-c4csc5c(=O)cc(N6CCOCC6)oc45)cc3)nc2n1C1CCCC1 [SRX3177],remaining binding at 1 µM,kinome (kinase panel) [1],19%
same,remaining binding at 1 µM,kinome (kinase panel) [2],94%
same,remaining binding at 1 µM,kinome (kinase panel) [3],46%
same,remaining binding at 1 µM,kinome (kinase panel) [4]; RPS6KA5(Kin.Dom.1-N-terminal),100%
same,remaining binding at 1 µM,kinome (kinase panel) [4]; RPS6KA5(Kin.Dom.2-C-terminal),100%
same,remaining binding at 1 µM,kinome (kinase panel) [5],88%
same,remaining binding at 1 µM,kinome (kinase panel) [6],100%
same,remaining binding at 1 µM,kinome (kinase panel) [7],64%
same,remaining binding at 1 µM,kinome (kinase panel) [8],97%
same,remaining binding at 1 µM,kinome (kinase panel) [9],99%
same,remaining binding at 1 µM,kinome (kinase panel) [10],1.8%
same,remaining binding at 1 µM,kinome (kinase panel) [11],100%
same,remaining binding at 1 µM,kinome (kinase panel) [12],100%
same,remaining binding at 1 µM,kinome (kinase panel) [13],89%
same,remaining binding at 1 µM,kinome (kinase panel) [14],90%
same,remaining binding at 1 µM,kinome (kinase panel) [15],82%
same,remaining binding at 1 µM,kinome (kinase panel) [16],100%
same,remaining binding at 1 µM,kinome (kinase panel) [17],51%
same,remaining binding at 1 µM,kinome (kinase panel) [18],100%
same,remaining binding at 1 µM,kinome (kinase panel) [19],100%
same,remaining binding at 1 µM,kinome (kinase panel) [20],40%
same,remaining binding at 1 µM,kinome (kinase panel) [21],100%
same,remaining binding at 1 µM,kinome (kinase panel) [22],97%
same,remaining binding at 1 µM,kinome (kinase panel) [23],99%
same,remaining binding at 1 µM,kinome (kinase panel) [24],100%
same,remaining binding at 1 µM,kinome (kinase panel) [25],43%
same,remaining binding at 1 µM,kinome (kinase panel) [26],90%
same,remaining binding at 1 µM,kinome (kinase panel) [27],100%
same,remaining binding at 1 µM,kinome (kinase panel) [28],65%
same,remaining binding at 1 µM,kinome (kinase panel) [29],80%
same,remaining binding at 1 µM,kinome (kinase panel) [30],16%
same,remaining binding at 1 µM,kinome (kinase panel) [31],89%
same,remaining binding at 1 µM,kinome (kinase panel) [32],96%
